Tested on: P388
Test: Cytotoxicity against mouse P388 cells
Format: functional, cell-based

Row | SMILES | IC50
1 | COC(/C=C/C(C)=C/C=C/C(C)=C1\C(=O)C[C@H]2[C@@]3(C)CC[C@@H](O)[C@](C)(C(=O)[O-])[C@@H]3CC[C@]12C)C(C)(C)O.[Na+] (some centres undefined) [GLOBOSTELLATIC ACID D] | 0.1 µg/mL
2 | CC(=O)O[C@@H]1CC[C@@]2(C)[C@@H](CC[C@]3(C)/C(=C(\C)C(=O)/C=C/C(C)=C/C=C/C(C)(C)O)C(=O)C[C@@H]23)[C@@]1(C)C(=O)[O-].[Na+] [GLOBOSTELLATIC ACID A] | 0.1 µg/mL
3 | COC(/C=C/C(C)=C/C=C/C(C)=C1\C(=O)C[C@H]2[C@@]3(C)CC[C@@H](OC(C)=O)[C@](C)(C(=O)[O-])[C@@H]3CC[C@]12C)C(C)(C)O.[Na+] (some centres undefined) [GLOBOSTELLATIC ACID C] | 0.46 µg/mL
4 | COC(/C=C/C(C)(C)O)/C(C)=C/C=C/C(C)=C1\C(=O)C[C@H]2[C@@]3(C)CC[C@@H](OC(C)=O)[C@](C)(C(=O)[O-])[C@@H]3CC[C@]12C.[Na+] (some centres undefined) [GLOBOSTELLATIC ACID B] | 0.1 µg/mL

Source: ChEMBL document CHEMBL1158216, “Globostellatic acids A-D, new cytotoxic isomalabaricane triterpenes from the marine sponge Stelletta globostellata” (J Nat Prod, 1996)
